Laboratory results as given in patent US8192962B2, “Processes for detecting toxic substances” (Daikin Industries, Ltd., priority 2001, dated 2012).

Tested on: Genes belonging to other category
Test: DNA chip mRNA expression in yeast, genes belonging to other category (Table 9)
Format: cell-based, Saccharomyces cerevisiae S288C
Outline: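 Cells were grown at 25° C. in YPD, treated at logarithmic phase for 2 h with a chemical at a concentration inhibiting growth but not causing death, and compared with untreated cultures. Labeled cDNA was hybridized to a DNA chip carrying all yeast genes, and the expression ratio was taken from scanner fluorescence.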

Measured: The level of expressed mRNA in the presence of chemical substance/The level of expressed mRNA in the absence of chemical substance

manganese ethylenebis(dithiocarbamate) [(8)]
1.6: yeast gene YMR226C | yeast gene YPR108W
2.1: yeast gene YNL333W
1.9: yeast gene YOR288C
1.4: yeast gene YKL193C | yeast gene YLR362W | yeast gene YNR069C | yeast gene YOR036W | yeast gene YOR185C
1.2: yeast gene YKL008C | yeast gene YMR314W | yeast gene YOR132W | yeast gene YOR157C
0.8: yeast gene YKL039W | yeast gene YMR275C | yeast gene YMR276W | yeast gene YNL007C | yeast gene YNL093W | yeast gene YOR355W | yeast gene YPL089C | yeast gene YPL154C
1.3: yeast gene YLR250W | yeast gene YOR124C | yeast gene YOR198C
1.5: yeast gene YKL165C
0.9: yeast gene YKL013C | yeast gene YLR120C | yeast gene YLR178C | yeast gene YMR104C
0.7: yeast gene YLR356W | yeast gene YLR391W | yeast gene YOR181W
2.2: yeast gene YLR327C
1.0: yeast gene YLR429W | yeast gene YMR004W | yeast gene YMR094W | yeast gene YOL013C | yeast gene YOL164W | yeast gene YOR117W | yeast gene YOR383C | yeast gene YPR103W
1.1: yeast gene YLR136C | yeast gene YMR219W | yeast gene YNL006W | yeast gene YNR010W | yeast gene YOR259C | yeast gene YPL109C | yeast gene YPL149W
0.5: yeast gene YKL096W
2.6: yeast gene YOR261C
